# According to US20080318989A1, “Pyrimidine Kinase Inhibitors” (priority 2005, published 2008):
# Tested on: HT29 colon cancer cell line
# Assay: Cellular proliferation/viability assay (Cell-Titer-Glo), HT29
# Format: cell-based
# Settings: Homo sapiens, HT-29, 120 h; HT29, 5 days incubation
# Experimental: (§1) Potency of test compounds in inhibiting cellular proliferation and/or cellular viability was estimated using a cellular ATP assay (Cell-Titer-Glo, Promega). Cells (HCT116, HT29 colon cancer cell lines, MCF-7 breast cancer cell line) were seeded in 384-well plates (Greiner μClear) at an appropriate density in 50:50 DMEM/Hams F-12 medium supplemented with 10% fetal calf serum, and allowed to attach overnight. Test compounds were sequentially diluted in DMSO and then culture medium, and added to the cells at appropriate concentrations. Cells were incubated with compound for 5 days. Cell number/viability was estimated using Cell-Titer-Glo reagent (Promega) according to manufacturers instructions.
row,IC50 [nM],SMILES
1,100,CCN1C(=O)C(C)(C)c2cc(Nc3ncc(Cl)c(Nc4ccccc4NC(=O)/C=C/c4ccccc4)n3)ccc21 [compound 49]

# Tested on: HCT116 colon cancer cell line
# Assay: Cellular proliferation/viability assay (Cell-Titer-Glo), HCT116
# Format: cell-based
# Settings: Homo sapiens, HCT-116, 120 h; HCT116, 5 days incubation
# Experimental: as §1
row,IC50 [nM],SMILES
1,110,CCN1C(=O)C(C)(C)c2cc(Nc3ncc(Cl)c(Nc4ccccc4NC(=O)/C=C/c4ccccc4)n3)ccc21 [compound 49]

# Target: T1, Aurora A (Homo sapiens, UniProt O14965)
# T1 sequence (O14965 1-403): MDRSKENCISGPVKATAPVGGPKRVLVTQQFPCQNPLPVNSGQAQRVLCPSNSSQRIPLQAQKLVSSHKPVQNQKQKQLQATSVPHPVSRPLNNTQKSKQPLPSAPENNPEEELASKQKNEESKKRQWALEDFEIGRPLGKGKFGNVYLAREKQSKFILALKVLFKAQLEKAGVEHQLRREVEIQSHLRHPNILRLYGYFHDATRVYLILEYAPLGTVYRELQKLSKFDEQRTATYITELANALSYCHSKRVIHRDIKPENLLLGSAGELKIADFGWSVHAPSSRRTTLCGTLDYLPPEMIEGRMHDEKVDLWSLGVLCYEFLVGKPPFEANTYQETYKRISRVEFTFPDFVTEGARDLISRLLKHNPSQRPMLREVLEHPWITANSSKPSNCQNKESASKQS
# Assay: Aurora A in vitro kinase assay (ELISA)
# Format: biochemical
# Settings: 30 μM ATP, 45 minutes
# Experimental: Kinase activities were measured by Enzyme-Linked Immunosorbent Assay (ELISA): Maxisorp 384-well plates (Nunc) were coated with recombinant fusion protein comprising residues 1-15 of Histone H3 fused to the N-terminus of Glutathione-S-Transferase. Plates were then blocked with a solution of 1 mg/mL I-block (Tropix Inc) in phosphate-buffered saline. Kinase reactions were carried out in the wells of the ELISA plate by combining an appropriate amount of Aur A and B kinases and/or mutants thereof with test compound and 30 μM ATP. The reaction buffer was 1× Kinase Buffer (Cell Signaling Technologies) supplemented with 1 μg/mL I-block. Reactions were stopped after 45 minutes by addition of 25 mM EDTA. After washing, substrate phosphorylation was detected by addition of anti-phospho-Histone H3 (Ser 10) 6G3 mAb (Cell Signaling cat #9706) and sheep anti-mouse pAb-HRP (Amersham cat# NA931V), followed by calorimetric development with TMB.
row,IC50 [nM],SMILES
1,2.1,CC(=O)N1CCc2cc(Nc3ncc(Cl)c(Nc4ccccc4C(=O)NC4CC4)n3)ccc21 [compound 44]
2,23.1,CCN1C(=O)C(C)(C)c2cc(Nc3ncc(F)c(Nc4ccc(C(=O)Nc5ccccn5)cc4)n3)ccc21 [compound 26]
3,7.2,COCCN1C(=O)C(C)(C)c2cc(Nc3ncc(F)c(Nc4ccccc4NC(=O)C4CC4)n3)ccc21 [compound 38]
4,0.6,O=C(Nc1ccccc1Nc1nc(Nc2ccc3c(c2)CS(=O)(=O)C3)ncc1Cl)C1CC1 [compound 58]
5,10.8,CCN1C(=O)C(C)(C)c2cc(Nc3ncc(F)c(Nc4ccc(C(=O)NC(C)(C)C)cc4)n3)ccc21 [compound 5]
6,10.4,CN1C(=O)C(C)(C)c2cc(Nc3ncc(F)c(Oc4ccc(C(=O)Nc5ccccn5)cc4)n3)ccc21 [compound 59]
7,6,O=C(/C=C/c1ccccc1)Nc1ccccc1Nc1nc(Nc2ccc3c(c2)CC(=O)N3)ncc1Cl [compound 50]
8,24.8,CC(=O)N1CC(C)(C)c2cc(Nc3ncc(Cl)c(Nc4ccccc4C(=O)NC4CC4)n3)ccc21 [compound 48]
